Test results published in ChEMBL document CHEMBL5726765, “5-hydroxytryptamine receptor 7 activity modulators and their method of use” (2019).

Molecular target: 5-hydroxytryptamine receptor 7 (Homo sapiens, UniProt P34969)
Test: A similar stock of the reference compound chlorpromazine is also prepared as a positive control. Eleven dilutions (5× assay concentration) of the compound of the disclosure and chlorpromazine are prepared in the Assay Buffer by serial dilution to yield final corresponding assay concentrations ranging from 10 pM to 10 μM.A stock concentration of 5 nM [3H]LSD (lysergic acid diethyl amide) is prepared in 50 mM Tris-HCl, 10 mM MgCl2, 1 mM EDTA, pH 7.4 (Assay Buffer). Aliquots (50 μl) of radioligand are dispensed into the wells of a 96-well plate containing 100 μl of Assay Buffer. Duplicate 50-μl aliquots of the compound of the disclosure test and chlorpromazine positive control reference compound serial dilutions are added.Membrane fractions of cells expressing recombinant 5HT7 receptors (50 μL) are dispensed into each well. […]

Sequence of 5-hydroxytryptamine receptor 7 (P34969 whole entry): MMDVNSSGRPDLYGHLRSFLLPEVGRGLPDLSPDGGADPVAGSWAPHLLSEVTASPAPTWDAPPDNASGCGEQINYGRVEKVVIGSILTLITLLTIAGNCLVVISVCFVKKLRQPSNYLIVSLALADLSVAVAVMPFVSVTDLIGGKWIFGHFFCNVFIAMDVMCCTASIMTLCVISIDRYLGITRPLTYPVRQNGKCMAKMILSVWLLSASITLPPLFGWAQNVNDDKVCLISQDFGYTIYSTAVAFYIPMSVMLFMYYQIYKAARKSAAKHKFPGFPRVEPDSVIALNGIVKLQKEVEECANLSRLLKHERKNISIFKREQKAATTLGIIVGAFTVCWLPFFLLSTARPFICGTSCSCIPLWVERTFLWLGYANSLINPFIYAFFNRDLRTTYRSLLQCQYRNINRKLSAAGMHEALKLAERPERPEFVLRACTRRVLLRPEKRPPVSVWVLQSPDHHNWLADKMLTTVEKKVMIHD

IC50: 3.16 µM
Structure (SMILES): CCC1(CC)CC(CCN2CCC(C(O)(c3ccccc3)c3ccccc3)CC2)OC1=O (stereo unspecified)
